Results published in US20080058281A1, “Skin Lightening Compositions Comprising Vitamines and Flavonoids” (priority 2004, published 2008).

System: Melanoderm (MatTek MEL-300-B) tissue, epidermal keratinocytes (NHEK) and melanocytes (NHM)
Experiment: Melanoderm system: quantification of light (alkali-soluble) and dark (alkali-insoluble) melanin
Format: cell-based, human
Details: for Total Melanin: Melanoderm tissue, agents in medium at Table 1 concentrations (Pycnogenol 10 μg/ml, Vit C 30 μg/ml, Vit E 1 μM, Vit B12 1 ng/ml, Vit A 15 ng/ml, cysteine 10 μg/ml, niacinamide 10 μg/ml), control 6.93; for Ratio of light melanin (μg/g)/dark melanin (μg/g) / Dark Melanin / Light Melanin / Dark Melanin, change relative to control / Light Melanin, change relative to control: Table 1 concentrations; for Ratio of light melanin (μg/g)/dark melanin (μg/g): control 0.14; for Dark Melanin: alkali-insoluble melanin, control 6.08; for Dark Melanin / Light Melanin: OD 340 nm; for Light Melanin: alkali-soluble melanin, control 0.85; for Dark Melanin, change relative to control: value in brackets under Dark Melanin; for Light Melanin, change relative to control: value in brackets under Light Melanin
Protocol: In these examples, evaluation of the ability of various agents, individually and in combination, to influence levels of dark and light melanin was tested using the commercially available Melanoderm™ system.
The MelanoDerm™ MatTeks system consists of normal, human-derived epidermal keratinocytes (NHEK) and melanocytes (NHM) which have been cultured to form a multilayered, highly differentiated model of the human epidermis. The NHM within co-cultures undergo spontaneous melanogenesis leading to tissues of varying levels of pigmentation. The tissues are produced using serum free medium without artificial stimulators of melanogenesis such as TPA and IBMX. The cultures are grown on cell culture inserts at the air-liquid interface, allowing for simulated topical application of agents to be tested. Introduction of agents into the medium simulates systemic application.
On delivery, the melanoderms (MatTek MEL-300-B) were placed onto metal ring supports in a 6 well plate containing 5 ml of pre-warmed maintenance media (of EPI-100-MM-PRF), using aseptic technique as per MatTek's protocol. Incubation was carried out overnight at 37° C. and 4% CO2 to allow the melanoderms to recover and equilibrate fully. Once placed under these conditions the MEL-300 tissue, undergo melanogenesis and differentiation.
Treatment was initiated on the following morning. Agents to be tested were dissolved in appropriate solvents and added to warmed media at final concentrations pre-assessed for melanocyte toxicity. Each time the media was changed, the spent media was aspirated from the melanoderms and reserved for testing for toxicity (Lactate Dehydrogenase (Promega)) and Interleukin-1 release (R&D systems) and replaced with a fresh dose of media plus test agents whether within the media of the melanoderm. Melanoderms were returned to the incubator.
On observation of differences in darkening, microscopic and macroscopic darkening were recorded photographically. Harvesting the tissue of the melanoderm involved cutting away the tissue from its plastic support and was followed by quantification of melanin present post-treatment versus untreated.
Melanoderm samples were cut from the plastic holders and the wet weight of tissue measured. 200 μl 1M NaOH/8M urea was added to the melanoderm sample the tissue homogenised in a microfuge tube. Samples were whirlimixed at RT for 30 minutes on and off to release the soluble melanin. Samples were centrifuged at 13,000 rpm for 10 minutes and supernatant containing soluble melanin was removed to a fresh tube.
Protein was extracted from the supernatant by addition of 200 μl chloroform and then by mixing vigorously for 1 minute. Phases were separated by centrifugation at 13,000 rpm for 10 minutes. 150 μl of supernatant was added to a microtitre plate (in duplicate) and the OD 340 nm ascertained.
1M NaOH was added to the remaining pellet which contains the insoluble melanin and the sample vortexed for one minute. The sample was then incubated in a water bath at 37° C. for 96 hrs with daily mixing to released the insoluble melanin. The sample was centrifuged for 10 minutes at 13,000 rpm with 200 μl of chloroform and 190 μl of the supernatant taken to a fresh tube. The supernatant was centrifuged again and 150 μl removed to a microtitre plate for analysis of absorption at 340 nm.
Absolute melanin is calculated as the actual melanin quantity calculated from a previously determined light melanin standard curve: x=(y−0.003)/4.76423 (where x=concentration of melanin and y=optical density at 340 nm).

| Molecule | Total Melanin [µg/g] | Ratio of light melanin (μg/g)/dark melanin (μg/g) | Dark Melanin [µg/g] | Light Melanin [µg/g] | Dark Melanin, change relative to control | Light Melanin, change relative to control |
| --- | --- | --- | --- | --- | --- | --- |
| N[C@@H](CS)C(=O)O [Cysteine] | 5.96 | 0.13 | 5.27 | 0.69 | (−13.3%) | (−18.8%) |
| NC(=O)c1cccnc1 [Niacinamide] | 8.10 | 0.13 | 7.16 | 0.94 | (+17.8%) | (+10.6%) |
| Vitamin B12 | 7.93 | 0.19 | 6.66 | 1.27 | (+9.5%) | (+49.4%) |
| Vitamin A | 7.81 |  | 6.71 |  |  |  |
